These results are taken from ChEMBL document CHEMBL1777705, “Naphthol derivatives as TRPV1 inhibitors for the treatment of urinary incontinence” (Bioorg Med Chem Lett, 2011).

For series [1], the system named is Rattus norvegicus. Briefly: Dose normalized AUC in po dosed rat. The series is classed as ADME, organism-based. The note with it: in vivo.
In series [2] the test system is Rattus norvegicus. Put plainly: Inhibition of capsaicin-induced micturition frequency in Sprague-Dawley rat overactive bladder model at 10 mg/kg, iv relative to control. Format: functional.
Series [3] has as its system Rattus norvegicus. Put plainly: Inhibition of cyclophosphamide-induced voiding frequency in iv dosed Sprague-Dawley rat cystitis model. The series is classed as functional, organism-based.
Series [4] has as its system Rattus norvegicus. Put plainly: Inhibition of cyclophosphamide-induced bladder capacity in iv dosed Sprague-Dawley rat cystitis model. The series is classed as functional, organism-based.
Series [5] in a line: Oral bioavailability in Sprague-Dawley rat. The conditions noted are these: in vivo. Format: ADME, organism-based.
The nature of series [6]: Solubility of the compound. The series is classed as physicochemical.
In series [7] the test system is Rattus norvegicus. Put plainly: Inhibition of capsaicin-induced micturition frequency in Sprague-Dawley rat overactive bladder model at 3 mg/kg, iv relative to control. The series is classed as functional.
Series [8] deals with Transient receptor potential cation channel subfamily V member 1 (Rattus norvegicus, UniProt O35433). Briefly: Antagonist activity at rat TRPV1 expressed in CHO cells co-expressing aequorin and CRE-luciferase reporter gene assessed as inhibition of capsaicin-induced calcium flux. Format: functional, cell-based.
Sequence of Transient receptor potential cation channel subfamily V member 1 (Rattus norvegicus, UniProt O35433) (O35433 whole entry): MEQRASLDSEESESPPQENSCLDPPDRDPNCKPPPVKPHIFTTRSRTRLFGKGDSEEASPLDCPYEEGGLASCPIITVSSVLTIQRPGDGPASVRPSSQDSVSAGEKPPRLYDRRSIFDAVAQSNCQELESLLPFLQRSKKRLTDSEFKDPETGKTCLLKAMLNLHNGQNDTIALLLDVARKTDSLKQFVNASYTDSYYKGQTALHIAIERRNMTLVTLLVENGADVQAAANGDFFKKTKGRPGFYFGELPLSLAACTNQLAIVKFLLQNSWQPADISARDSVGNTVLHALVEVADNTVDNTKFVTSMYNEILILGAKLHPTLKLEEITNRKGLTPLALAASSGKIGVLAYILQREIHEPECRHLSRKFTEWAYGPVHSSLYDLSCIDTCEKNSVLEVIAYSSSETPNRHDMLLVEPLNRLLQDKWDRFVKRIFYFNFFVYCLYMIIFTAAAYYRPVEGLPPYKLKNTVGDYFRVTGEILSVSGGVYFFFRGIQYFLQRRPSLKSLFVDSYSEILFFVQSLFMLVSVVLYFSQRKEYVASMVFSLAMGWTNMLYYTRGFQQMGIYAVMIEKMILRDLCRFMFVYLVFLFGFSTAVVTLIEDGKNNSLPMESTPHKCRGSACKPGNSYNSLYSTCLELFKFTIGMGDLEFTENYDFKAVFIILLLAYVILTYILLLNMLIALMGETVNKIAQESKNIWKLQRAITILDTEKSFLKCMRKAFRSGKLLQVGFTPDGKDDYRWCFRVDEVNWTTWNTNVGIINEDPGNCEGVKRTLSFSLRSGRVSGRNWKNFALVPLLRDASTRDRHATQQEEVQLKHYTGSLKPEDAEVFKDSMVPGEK
The target of series [9] is Transient receptor potential cation channel subfamily V member 1 (Homo sapiens, UniProt Q8NER1). Briefly: Antagonist activity at human TRPV1 expressed in CHO cells co-expressing aequorin and CRE-luciferase reporter gene assessed as inhibition of capsaicin-induced calcium flux. Format: functional, cell-based. In general terms: In a reporter assay the amount or activity of a reporter protein is the signal.
Sequence of Transient receptor potential cation channel subfamily V member 1 (Homo sapiens, UniProt Q8NER1) (Q8NER1 whole entry): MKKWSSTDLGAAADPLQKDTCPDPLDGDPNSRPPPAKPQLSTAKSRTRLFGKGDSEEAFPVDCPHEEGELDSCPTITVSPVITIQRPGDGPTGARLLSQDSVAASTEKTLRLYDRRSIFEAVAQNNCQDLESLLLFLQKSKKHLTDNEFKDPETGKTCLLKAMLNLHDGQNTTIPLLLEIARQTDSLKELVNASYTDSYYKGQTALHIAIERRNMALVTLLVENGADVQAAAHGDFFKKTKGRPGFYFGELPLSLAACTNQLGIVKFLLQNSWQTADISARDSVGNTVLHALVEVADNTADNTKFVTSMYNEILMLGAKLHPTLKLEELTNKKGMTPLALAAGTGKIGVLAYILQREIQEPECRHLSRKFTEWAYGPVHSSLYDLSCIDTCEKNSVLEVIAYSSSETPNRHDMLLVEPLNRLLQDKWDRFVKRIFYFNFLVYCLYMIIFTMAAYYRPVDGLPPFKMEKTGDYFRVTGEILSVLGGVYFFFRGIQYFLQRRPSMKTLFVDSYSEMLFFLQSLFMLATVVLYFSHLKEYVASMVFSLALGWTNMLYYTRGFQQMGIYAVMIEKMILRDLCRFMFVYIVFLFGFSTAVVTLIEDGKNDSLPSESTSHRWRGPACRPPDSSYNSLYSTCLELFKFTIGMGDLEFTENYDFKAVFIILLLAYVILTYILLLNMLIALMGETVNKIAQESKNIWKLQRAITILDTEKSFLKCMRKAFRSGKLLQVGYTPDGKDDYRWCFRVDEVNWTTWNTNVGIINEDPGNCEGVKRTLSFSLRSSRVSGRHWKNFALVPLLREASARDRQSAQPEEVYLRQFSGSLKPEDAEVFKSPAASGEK

≈ marks a conversion by molar mass, not a printed value. Some results are limits rather than exact numbers.

A word on the AUC: it is the area under the concentration-time curve, a measure of exposure. A low value points to less exposure. In general, inhibition in vivo refers to the change of the read-out against control, counted positive when it falls. A higher inhibition in vivo goes with a response far below the control. Usually bioavailability stands for dose-corrected exposure relative to a reference, in per cent. As a reminder, the solubility is the concentration that dissolves in the medium under given conditions. In the series with Rattus norvegicus [1], `O=C(Nc1ccc(Cl)c(C(F)(F)F)c1)Nc1c(Cl)c(Cl)cc2ccc(O)cc12` came in with an AUC of 84 ng·h/mL. Besides, in the series on Rattus norvegicus [2], the inhibition in vivo at 10 mg/kg turned out to be 55%. In addition, the inhibition entry in the series on Rattus norvegicus [3] and in the series on Rattus norvegicus [4] was “Dose-dependent effect” in each case. In series [5], this compound displayed a bioavailability of 3%. The compound further displayed a solubility in [6] of 0.03 µg/mL (≈ 0.0667 µM).

`O=C(Nc1ccc(Cl)c(C(F)(F)F)c1)Nc1c(Cl)c(Br)cc2ccc(O)cc12`: in the series on Rattus norvegicus [1], the exposure (AUC) is 477 ng·h/mL. Besides, the inhibition in vivo at 3 mg/kg in the series on Rattus norvegicus [7] was determined as 88%.

As usually defined, the IC50 is the concentration that inhibits the measured activity by half. As to `COc1cccc(NC(=O)Nc2cccc3ccc(O)cc23)c1`, the IC50 in series [8] was determined as 8.6 nM; in series [9] it was 8 nM.

Regarding `CSc1cccc(NC(=O)Nc2cccc3ccc(O)cc23)c1`, the results for the concentration for half-maximal inhibition (IC50) in series [8] and in series [9] were 7.1 nM and 3.9 nM, respectively.

As for `O=C(Nc1ccc(Cl)cc1Cl)Nc1cccc2ccc(O)cc12`, the IC50 in series [8] came to 16 nM; in series [9] it was 12 nM.

`CCOC(=O)c1cccc(NC(=O)Nc2cccc3ccc(O)cc23)c1`: the values for the IC50 in series [8] and in series [9] were 1.6 nM and 1.7 nM, respectively.

In the case of `O=C(Nc1ccc(Cl)c(C(F)(F)F)c1)Nc1c(Br)c(Br)cc2ccc(O)cc12`, the area under the curve (AUC) in the series on Rattus norvegicus [1] was 596 ng·h/mL. At 3 mg/kg the inhibition in vivo in the series with Rattus norvegicus [7] was 11%. Also, in the series on Rattus norvegicus [2], at 10 mg/kg the inhibition in vivo was 65%.

Regarding `COc1ccc2cccc(NC(=O)Nc3ccc(Cl)c(C(F)(F)F)c3)c2c1`, the exposure (AUC) in the series on Rattus norvegicus [1] turned out to be 114 ng·h/mL.

Take `O=C(Nc1cccc([N+](=O)[O-])c1)Nc1cccc2ccc(O)cc12`: the IC50 in series [8] is 14 nM; in series [9], 7.5 nM.

Take `O=C(Cc1cccc2ccc(O)cc12)Nc1ccc(Cl)c(C(F)(F)F)c1`: the half-inhibitory concentration (IC50) in series [9] was 34 nM.

For the compound `O=C(Nc1ccc(C(F)(F)F)cc1)Nc1cccc2ccc(O)cc12`, the IC50 in [8] is 4.9 nM; in series [9], 5.4 nM.

Consider `O=C(Nc1cccc(C(F)(F)F)c1)Nc1cccc2ccc(O)cc12`, for which the results for the IC50 in [8] and in series [9] were 4.5 nM and 3.5 nM, respectively.

For `O=C(Cc1cccc(F)c1)Nc1cccc2ccc(O)cc12`, the IC50 in series [9] is more than 1000 nM.

With `CC(=O)c1cccc(NC(=O)Nc2cccc3ccc(O)cc23)c1`, the IC50 in [8] amounted to 39 nM; in series [9], 28 nM.

With `O=C(Nc1cccc(C(=O)O)c1)Nc1cccc2ccc(O)cc12`, the concentration for half-maximal inhibition (IC50) in [8] was determined as 270 nM; in series [9], 520 nM.

Take `O=C(Nc1ccc(Cl)c(C(F)(F)F)c1)Nc1c(Cl)ccc2ccc(O)cc12`: the IC50 stood at 4.5 nM in series [8] and 3.4 nM in series [9]. Moreover, the AUC in the series on Rattus norvegicus [1] amounted to 3 ng·h/mL.

As to `O=C(Nc1ccccc1C(F)(F)F)Nc1cccc2ccc(O)cc12`, the half-inhibitory concentration (IC50) in series [8] worked out at 64 nM; in [9], 87 nM.

For `O=C(NCc1cccc(O)c1)Nc1cccc(F)c1`, the IC50 in series [8] and in series [9] was more than 1000 nM throughout.
